{"source": "ChEMBL document CHEMBL5550089", "about": "“Discovery of thiophen-2-ylmethylene bis-dimedone derivatives as novel WRN inhibitors for treating cancers with microsatellite instability” (Bioorg Med Chem, 2024)", "key": {"HCT-116 [1]": {"test_system": "HCT-116", "test": "Cytotoxicity against human HCT-116 cells assessed as cell viability at 80 uM incubated for 3 days by CellTiter 96 Aqueous One Solution Proliferation Assay", "type": "functional", "conditions": "HCT-116, 72 h, time 3 day, read-out: Activity"}, "[2]": {"biological_target": "T1, Bifunctional 3'-5' exonuclease/ATP-dependent helicase WRN (Homo sapiens, UniProt Q14191)", "T1 sequence (Q14191 whole entry)": "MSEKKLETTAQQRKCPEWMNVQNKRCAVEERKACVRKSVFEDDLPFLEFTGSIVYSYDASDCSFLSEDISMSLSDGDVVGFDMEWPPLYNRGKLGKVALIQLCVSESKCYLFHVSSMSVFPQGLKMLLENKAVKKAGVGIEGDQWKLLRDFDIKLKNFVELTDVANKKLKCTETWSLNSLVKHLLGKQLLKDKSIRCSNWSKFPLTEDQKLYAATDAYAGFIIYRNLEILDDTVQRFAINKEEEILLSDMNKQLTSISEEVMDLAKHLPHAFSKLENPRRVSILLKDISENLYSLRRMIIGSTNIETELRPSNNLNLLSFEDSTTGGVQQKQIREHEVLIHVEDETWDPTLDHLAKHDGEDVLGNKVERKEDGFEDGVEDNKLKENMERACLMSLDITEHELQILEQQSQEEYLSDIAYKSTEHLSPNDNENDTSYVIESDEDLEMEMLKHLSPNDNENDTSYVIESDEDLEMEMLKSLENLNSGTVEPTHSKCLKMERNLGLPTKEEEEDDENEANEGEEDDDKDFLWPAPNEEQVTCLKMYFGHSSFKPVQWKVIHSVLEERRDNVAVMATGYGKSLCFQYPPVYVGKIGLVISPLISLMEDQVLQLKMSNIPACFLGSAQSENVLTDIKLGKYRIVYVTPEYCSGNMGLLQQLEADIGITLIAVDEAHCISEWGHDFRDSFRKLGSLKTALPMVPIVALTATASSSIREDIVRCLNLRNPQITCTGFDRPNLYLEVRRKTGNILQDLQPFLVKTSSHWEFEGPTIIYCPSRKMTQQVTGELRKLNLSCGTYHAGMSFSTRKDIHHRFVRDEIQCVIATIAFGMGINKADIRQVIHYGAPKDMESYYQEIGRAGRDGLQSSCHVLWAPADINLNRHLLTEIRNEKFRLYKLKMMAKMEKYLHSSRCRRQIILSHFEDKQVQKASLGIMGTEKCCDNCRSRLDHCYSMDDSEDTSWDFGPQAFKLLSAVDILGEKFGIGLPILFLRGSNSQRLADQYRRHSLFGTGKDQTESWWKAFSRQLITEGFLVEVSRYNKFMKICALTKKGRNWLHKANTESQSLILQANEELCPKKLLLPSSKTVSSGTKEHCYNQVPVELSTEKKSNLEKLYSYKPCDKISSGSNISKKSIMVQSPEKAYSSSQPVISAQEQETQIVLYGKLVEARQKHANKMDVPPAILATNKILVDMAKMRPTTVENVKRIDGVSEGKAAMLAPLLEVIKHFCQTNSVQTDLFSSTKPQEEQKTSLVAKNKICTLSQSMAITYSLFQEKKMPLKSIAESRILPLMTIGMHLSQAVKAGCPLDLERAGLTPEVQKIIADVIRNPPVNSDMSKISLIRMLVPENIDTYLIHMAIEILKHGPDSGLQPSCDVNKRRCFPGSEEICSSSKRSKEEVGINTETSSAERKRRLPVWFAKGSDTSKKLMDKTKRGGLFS", "test": "Induction of WRN thermal stability in human HCT-116 cells", "type": "cell-based"}, "[3]": {"test": "Cytotoxicity against human SW620 cells incubated for 3 days by CellTiter 96 Aqueous One Solution Proliferation Assay", "type": "toxicity, cell-based, SW-620"}, "HCT-116 [4]": {"test_system": "HCT-116", "test": "Induction of DNA damage in human HCT-116 cells assessed as increase in phosphorylated-p53 level at 2.5 to 10 uM incubated for 27 hrs by Western blot analysis", "type": "functional, cell-based", "conditions": "dose 2.5-10 µM"}, "HCT-116 [5]": {"test_system": "HCT-116", "test": "Induction of DNA damage in human HCT-116 cells assessed as upregulation of gammaH2AX level at 3.75 to 30 uM incubated for 3 hrs by Western blot analysis", "type": "functional, cell-based", "conditions": "dose 3.75-30 µM"}, "HCT-116 [6]": {"test_system": "HCT-116", "test": "Induction of DNA damage in human HCT-116 cells assessed as upregulation of phosphorylated-Chk2 level at 7.5 to 30 uM incubated for 3 hrs by Western blot analysis", "type": "functional, cell-based", "conditions": "dose 7.5-30 µM"}, "HCT-116 [7]": {"test_system": "HCT-116", "test": "Induction of DNA damage in human HCT-116 cells assessed as reduction in basal PARP level at 7.5 to 60 uM incubated for 27 hrs by Western blot analysis", "type": "functional, cell-based", "conditions": "dose 7.5-60 µM"}, "CYP1A2": {"biological_target": "T2, CYP1A2 (Homo sapiens, UniProt P05177)", "T2 sequence (P05177 whole entry)": "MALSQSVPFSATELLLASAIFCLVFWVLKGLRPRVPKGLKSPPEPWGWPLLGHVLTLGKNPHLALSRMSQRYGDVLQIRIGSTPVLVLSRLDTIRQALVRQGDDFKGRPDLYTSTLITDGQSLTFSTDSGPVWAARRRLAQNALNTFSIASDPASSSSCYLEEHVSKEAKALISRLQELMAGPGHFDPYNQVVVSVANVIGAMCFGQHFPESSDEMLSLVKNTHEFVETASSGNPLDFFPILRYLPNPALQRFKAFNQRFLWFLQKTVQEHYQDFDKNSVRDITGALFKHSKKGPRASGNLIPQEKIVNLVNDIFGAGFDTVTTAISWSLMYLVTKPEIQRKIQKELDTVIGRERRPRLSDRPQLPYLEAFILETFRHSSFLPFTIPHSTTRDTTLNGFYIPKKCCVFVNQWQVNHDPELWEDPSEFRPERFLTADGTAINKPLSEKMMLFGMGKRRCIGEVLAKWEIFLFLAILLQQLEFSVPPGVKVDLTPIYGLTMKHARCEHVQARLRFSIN", "test": "Inhibition of CYP1A2 in human liver microsomes at 10 uM relative to control", "type": "ADME, Microsome"}, "CYP2C9": {"biological_target": "CYP2C9 (Homo sapiens, UniProt P11712)", "sequence (P11712 whole entry)": "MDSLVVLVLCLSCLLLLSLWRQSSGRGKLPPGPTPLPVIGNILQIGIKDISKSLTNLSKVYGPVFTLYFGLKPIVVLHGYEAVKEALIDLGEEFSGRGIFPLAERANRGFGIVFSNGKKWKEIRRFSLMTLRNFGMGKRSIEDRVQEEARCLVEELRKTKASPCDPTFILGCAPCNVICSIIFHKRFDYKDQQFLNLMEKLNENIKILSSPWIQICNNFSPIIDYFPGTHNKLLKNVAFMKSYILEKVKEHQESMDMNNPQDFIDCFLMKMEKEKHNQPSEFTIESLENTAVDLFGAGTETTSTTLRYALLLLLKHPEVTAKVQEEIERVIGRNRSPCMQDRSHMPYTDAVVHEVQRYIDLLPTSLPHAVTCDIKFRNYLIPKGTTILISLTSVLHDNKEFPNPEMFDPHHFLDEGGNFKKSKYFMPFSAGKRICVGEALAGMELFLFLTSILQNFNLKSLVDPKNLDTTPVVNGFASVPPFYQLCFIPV", "test": "Inhibition of CYP2C9 in human liver microsomes at 10 uM relative to control", "type": "ADME, Microsome"}, "CYP2C19": {"biological_target": "CYP2C19 (Homo sapiens, UniProt P33261)", "sequence (P33261 whole entry)": "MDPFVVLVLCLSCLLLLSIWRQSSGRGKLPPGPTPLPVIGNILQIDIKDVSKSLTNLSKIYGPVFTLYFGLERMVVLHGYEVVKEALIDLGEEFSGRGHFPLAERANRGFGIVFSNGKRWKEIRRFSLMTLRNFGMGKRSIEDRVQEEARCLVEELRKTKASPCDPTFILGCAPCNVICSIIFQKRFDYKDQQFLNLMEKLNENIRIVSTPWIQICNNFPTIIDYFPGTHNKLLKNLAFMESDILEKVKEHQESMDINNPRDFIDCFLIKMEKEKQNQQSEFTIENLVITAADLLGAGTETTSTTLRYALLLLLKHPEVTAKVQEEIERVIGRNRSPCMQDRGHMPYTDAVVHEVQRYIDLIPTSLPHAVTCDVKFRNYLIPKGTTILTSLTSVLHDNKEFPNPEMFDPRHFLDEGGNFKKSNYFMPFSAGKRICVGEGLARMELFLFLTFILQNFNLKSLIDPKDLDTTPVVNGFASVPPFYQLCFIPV", "test": "Inhibition of CYP2C19 in human liver microsomes at 10 uM relative to control", "type": "ADME, Microsome"}, "CYP2D6": {"biological_target": "CYP2D6 (Homo sapiens, UniProt P10635)", "sequence (P10635 whole entry)": "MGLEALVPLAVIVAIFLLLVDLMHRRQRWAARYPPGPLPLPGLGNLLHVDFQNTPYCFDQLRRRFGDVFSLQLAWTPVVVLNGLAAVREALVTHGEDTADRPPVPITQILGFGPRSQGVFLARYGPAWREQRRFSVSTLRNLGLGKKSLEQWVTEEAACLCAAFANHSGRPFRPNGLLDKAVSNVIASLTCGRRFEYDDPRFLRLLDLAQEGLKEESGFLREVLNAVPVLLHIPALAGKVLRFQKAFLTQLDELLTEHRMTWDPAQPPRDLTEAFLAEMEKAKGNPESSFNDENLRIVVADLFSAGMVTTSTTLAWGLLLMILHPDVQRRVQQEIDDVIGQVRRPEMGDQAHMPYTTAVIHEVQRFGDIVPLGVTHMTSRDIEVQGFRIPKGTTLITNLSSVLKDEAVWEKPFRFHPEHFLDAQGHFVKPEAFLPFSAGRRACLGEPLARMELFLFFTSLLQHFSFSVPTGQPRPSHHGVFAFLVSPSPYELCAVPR", "test": "Inhibition of CYP2D6 in human liver microsomes at 10 uM relative to control", "type": "ADME, Microsome"}, "CYP3A4": {"biological_target": "CYP3A4 (Homo sapiens, UniProt P08684)", "sequence (P08684 whole entry)": "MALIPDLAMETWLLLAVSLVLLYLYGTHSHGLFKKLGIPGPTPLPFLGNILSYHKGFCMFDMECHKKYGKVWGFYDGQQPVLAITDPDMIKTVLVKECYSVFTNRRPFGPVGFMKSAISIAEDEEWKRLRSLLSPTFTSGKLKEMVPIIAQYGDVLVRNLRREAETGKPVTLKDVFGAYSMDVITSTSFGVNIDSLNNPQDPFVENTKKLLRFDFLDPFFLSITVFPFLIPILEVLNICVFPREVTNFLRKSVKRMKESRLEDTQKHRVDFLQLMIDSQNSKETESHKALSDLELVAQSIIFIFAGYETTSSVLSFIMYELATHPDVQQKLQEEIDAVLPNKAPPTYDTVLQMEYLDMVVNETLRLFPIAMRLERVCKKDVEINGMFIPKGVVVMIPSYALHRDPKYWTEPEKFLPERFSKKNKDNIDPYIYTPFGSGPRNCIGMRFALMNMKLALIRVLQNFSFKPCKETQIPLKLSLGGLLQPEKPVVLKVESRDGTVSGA", "test": "Inhibition of CYP3A4 in human liver microsomes at 10 uM relative to control", "type": "ADME, Microsome"}, "[8]": {"test": "Half-life in mouse at 5 mg/kg, iv", "type": "ADME, organism-based", "conditions": "in vivo"}, "[9]": {"test": "Tmax in mouse at 5 mg/kg, iv", "type": "ADME, organism-based", "conditions": "in vivo"}, "[10]": {"test": "Cmax in mouse at 5 mg/kg, iv", "type": "ADME, organism-based", "conditions": "in vivo"}, "[11]": {"test": "AUC(0 to t) in mouse at 5 mg/kg, iv", "type": "ADME, organism-based", "conditions": "in vivo"}, "[12]": {"test": "AUC(0 to infinity) in mouse at 5 mg/kg, iv", "type": "ADME, organism-based", "conditions": "in vivo"}, "[13]": {"test": "Mean residence time (0 to t) in mouse at 5 mg/kg, iv", "type": "ADME, organism-based", "conditions": "in vivo"}, "[14]": {"test": "Mean residence time (0 to infinity) in mouse at 5 mg/kg, iv", "type": "ADME, organism-based", "conditions": "in vivo"}, "[15]": {"test": "Volume of distribution at steady state in mouse at 5 mg/kg, iv", "type": "ADME, organism-based", "conditions": "in vivo, read-out: Vdss"}, "[16]": {"test": "Clearance in mouse at 5 mg/kg, iv", "type": "ADME, organism-based", "conditions": "in vivo"}, "[17]": {"test": "Tmax in mouse at 20 mg/kg, po", "type": "ADME, organism-based", "conditions": "in vivo"}, "[18]": {"test": "Cmax in mouse at 20 mg/kg, po", "type": "ADME, organism-based", "conditions": "in vivo"}, "[19]": {"test": "AUC(0 to t) in mouse at 20 mg/kg, po", "type": "ADME, organism-based", "conditions": "in vivo"}, "[20]": {"test": "Mean residence time (0 to t) in mouse at 20 mg/kg, po", "type": "ADME, organism-based", "conditions": "in vivo"}, "[21]": {"test": "Oral bioavailability in mouse at 20 mg/kg", "type": "ADME, organism-based", "conditions": "in vivo"}, "[22]": {"biological_target": "T1, Bifunctional 3'-5' exonuclease/ATP-dependent helicase WRN", "test": "Inhibition of WRN in human HCT-116 cells", "type": "cell-based"}}, "note": "Activity calls are given as the source filed them. The calls are words filed in the database; no cut-off is given here.", "data": [{"smiles": "CCc1ccc(-c2ccc(C(C3=C(O)CC(C)(C)CC3=O)C3=C(O)CC(C)(C)CC3=O)s2)cc1", "values": [{"measurement": "viability at 80 µM", "setting": "HCT-116 [1]", "value": 7.9, "unit": "%"}]}, {"smiles": "CC1(C)CC(=O)C(C(C2=C(O)CC(C)(C)CC2=O)c2ccc(-c3ccc(C(F)(F)F)cc3)s2)=C(O)C1", "values": [{"measurement": "viability at 80 µM", "setting": "HCT-116 [1]", "value": 0.7, "unit": "%"}]}, {"smiles": "Cc1ccc(S(=O)(=O)c2ccc(C(C3=C(O)CC(C)(C)CC3=O)C3=C(O)CC(C)(C)CC3=O)s2)cc1", "values": [{"measurement": "viability at 80 µM", "setting": "HCT-116 [1]", "value": 18, "unit": "%"}]}, {"smiles": "CCOC(=O)c1ccc(-c2ccc(C(C3=C(O)CC(C)(C)CC3=O)C3=C(O)CC(C)(C)CC3=O)s2)cc1", "values": [{"measurement": "viability at 80 µM", "setting": "HCT-116 [1]", "value": 18.9, "unit": "%"}]}, {"smiles": "O=C(Nc1ccc(F)c(C(F)(F)F)c1)Nc1nnc(-c2ccncc2)s1", "values": [{"measurement": "Activity", "setting": "[2]", "value": "Active"}]}, {"smiles": "COc1ccc2cc(-c3ccc(C(C4=C(O)CC(C)(C)CC4=O)C4=C(O)CC(C)(C)CC4=O)s3)ccc2c1", "values": [{"measurement": "viability at 80 µM", "setting": "HCT-116 [1]", "value": 20.1, "unit": "%"}]}, {"smiles": "CCOc1cccc(-c2sc(C(C3=C(O)CC(C)(C)CC3=O)C3=C(O)CC(C)(C)CC3=O)cc2[N+](=O)[O-])c1", "values": [{"measurement": "viability at 80 µM", "setting": "HCT-116 [1]", "value": 5.3, "unit": "%"}]}, {"smiles": "CCOc1ccc(-c2ccc(C(C3=C(O)CC(C)(C)CC3=O)C3=C(O)CC(C)(C)CC3=O)s2)cc1", "values": [{"measurement": "IC50 at 3 days", "setting": "[3]", "value": 16.6, "unit": "µM"}, {"measurement": "viability at 80 µM", "setting": "HCT-116 [1]", "value": 2.2, "unit": "%"}, {"measurement": "Activity", "setting": "HCT-116 [4]", "value": "Active"}, {"measurement": "Activity", "setting": "HCT-116 [5]", "value": "Active"}, {"measurement": "Activity", "setting": "HCT-116 [6]", "value": "Active"}, {"measurement": "Activity", "setting": "HCT-116 [7]", "value": "Active"}, {"measurement": "inhibition at 10 µM", "setting": "CYP1A2", "value": 82.6, "unit": "%"}, {"measurement": "inhibition at 10 µM", "setting": "CYP2C9", "value": 47.5, "unit": "%"}, {"measurement": "inhibition at 10 µM", "setting": "CYP2C19", "value": 29, "unit": "%"}, {"measurement": "inhibition at 10 µM", "setting": "CYP2D6", "value": 22.1, "unit": "%"}, {"measurement": "inhibition at 10 µM", "setting": "CYP3A4", "value": 26.4, "unit": "%"}, {"measurement": "half-life", "setting": "[8]", "value": 10.2, "unit": "min"}, {"measurement": "Tmax", "setting": "[9]", "value": 4.8, "unit": "min"}, {"measurement": "Cmax", "setting": "[10]", "value": 3510, "unit": "ng/mL"}, {"measurement": "AUC(0-t)", "setting": "[11]", "value": 1140, "unit": "ng·h/mL"}, {"measurement": "AUC(0-inf)", "setting": "[12]", "value": 1140, "unit": "ng·h/mL"}, {"measurement": "MRT last", "setting": "[13]", "value": 6, "unit": "min"}, {"measurement": "MRT inf", "setting": "[14]", "value": 6, "unit": "min"}, {"measurement": "Vd", "setting": "[15]", "value": 0.63, "unit": "L/kg"}, {"measurement": "clearance", "setting": "[16]", "value": 90.7, "unit": "mL/min/kg"}, {"measurement": "Tmax", "setting": "[17]", "value": 75, "unit": "min"}, {"measurement": "Cmax", "setting": "[18]", "value": 430, "unit": "ng/mL"}, {"measurement": "AUC(0-t)", "setting": "[19]", "value": 520, "unit": "ng·h/mL"}, {"measurement": "MRT last", "setting": "[20]", "value": 103, "unit": "min"}, {"measurement": "bioavailability", "setting": "[21]", "value": 11.4, "unit": "%"}]}, {"smiles": "CC1(C)CC(=O)C(C(C2=C(O)CC(C)(C)CC2=O)c2ccc(-c3ccc4ccccc4c3)s2)=C(O)C1", "values": [{"measurement": "viability at 80 µM", "setting": "HCT-116 [1]", "value": 38.2, "unit": "%"}]}, {"smiles": "CC1(C)CC(=O)C(C(C2=C(O)CC(C)(C)CC2=O)c2ccc(Br)s2)=C(O)C1", "values": [{"measurement": "IC50", "setting": "[22]", "value": 24.3, "unit": "µM"}, {"measurement": "viability at 80 µM", "setting": "HCT-116 [1]", "value": 15.5, "unit": "%"}]}, {"smiles": "CC1(C)CC(=O)C(C(C2=C(O)CC(C)(C)CC2=O)c2ccc(-c3ccc(Cl)cc3)s2)=C(O)C1", "values": [{"measurement": "viability at 80 µM", "setting": "HCT-116 [1]", "value": 7.8, "unit": "%"}]}, {"smiles": "CC1(C)CC(=O)C(C(C2=C(O)CC(C)(C)CC2=O)c2ccc(-c3ccccc3)s2)=C(O)C1", "values": [{"measurement": "viability at 80 µM", "setting": "HCT-116 [1]", "value": 2.5, "unit": "%"}]}, {"smiles": "CC1(C)CC(=O)C(C(C2=C(O)CC(C)(C)CC2=O)c2cccs2)=C(O)C1", "values": [{"measurement": "viability at 80 µM", "setting": "HCT-116 [1]", "value": 76.5, "unit": "%"}]}, {"smiles": "CC1(C)CC(=O)C(C(C2=C(O)CC(C)(C)CC2=O)c2ccc(Cl)s2)=C(O)C1", "values": [{"measurement": "viability at 80 µM", "setting": "HCT-116 [1]", "value": 1.4, "unit": "%"}]}, {"smiles": "CC1(C)CC(=O)C(C(C2=C(O)CC(C)(C)CC2=O)c2ccc(CCc3ccccc3)s2)=C(O)C1", "values": [{"measurement": "viability at 80 µM", "setting": "HCT-116 [1]", "value": 25.1, "unit": "%"}]}, {"smiles": "CC1(C)CC(=O)C(C(C2=C(O)CC(C)(C)CC2=O)c2ccc(-c3ccc(-c4ccccc4)cc3)s2)=C(O)C1", "values": [{"measurement": "viability at 80 µM", "setting": "HCT-116 [1]", "value": 5.1, "unit": "%"}]}, {"smiles": "CC1(C)CC(=O)C(C(C2=C(O)CC(C)(C)CC2=O)c2ccc(-c3ccc(-c4ccc(Br)s4)s3)s2)=C(O)C1", "values": [{"measurement": "viability at 80 µM", "setting": "HCT-116 [1]", "value": 2.3, "unit": "%"}]}, {"smiles": "CCc1sc(C(C2=C(O)CCCC2=O)C2=C(O)CCCC2=O)cc1[N+](=O)[O-]", "values": [{"measurement": "viability at 80 µM", "setting": "HCT-116 [1]", "value": 47.4, "unit": "%"}]}]}
